Results: publication PMC12865225 (Clinical and Translational Science, 2026)
“And” between values parts separate entries of the source, which are not always exact repeats. Equal values may be shown once. Marks after values point to notes of the source that are not given here.

Assays:
OATP1B3 = target: T1, OATP1B3 (Homo sapiens, UniProt Q9NPD5); assay: OATP1B3 inhibition, rosuvastatin uptake into transporter-expressing HEK293 cells; assay type: cell-based; settings: for IC50: IC50 (95% CI), μM OATP1B3, 2.5 μM rosuvastatin, 2 min, 30 min preincubation; for Calculated R-value OATP1B3: R = 1 + (I in,max,u/IC50), FDA cut-off ≥ 1.1
T1 construct: expressed in transfected cells; host or cells: HEK293 (recombinant baculovirus-mediated transduction)
T1 sequence (Q9NPD5 1-702): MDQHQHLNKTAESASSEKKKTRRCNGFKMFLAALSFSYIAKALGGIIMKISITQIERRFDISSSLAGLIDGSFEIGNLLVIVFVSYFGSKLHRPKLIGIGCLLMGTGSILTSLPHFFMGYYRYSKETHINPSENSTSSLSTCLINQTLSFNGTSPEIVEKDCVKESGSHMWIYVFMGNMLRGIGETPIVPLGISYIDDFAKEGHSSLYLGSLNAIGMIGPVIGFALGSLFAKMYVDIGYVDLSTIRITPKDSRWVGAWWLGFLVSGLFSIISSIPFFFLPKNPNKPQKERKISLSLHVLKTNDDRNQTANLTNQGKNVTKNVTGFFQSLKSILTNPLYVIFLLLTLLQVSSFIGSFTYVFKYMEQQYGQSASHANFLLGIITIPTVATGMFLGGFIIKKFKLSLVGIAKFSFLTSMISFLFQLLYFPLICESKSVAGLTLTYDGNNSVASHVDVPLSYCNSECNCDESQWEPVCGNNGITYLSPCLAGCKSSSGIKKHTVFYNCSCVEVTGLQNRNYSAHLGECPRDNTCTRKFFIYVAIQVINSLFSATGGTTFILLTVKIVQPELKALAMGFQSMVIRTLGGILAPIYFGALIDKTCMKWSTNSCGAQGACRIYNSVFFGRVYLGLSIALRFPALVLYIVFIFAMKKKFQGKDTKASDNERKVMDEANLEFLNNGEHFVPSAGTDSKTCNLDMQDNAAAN
Method: The human transporters OATP1B1, OATP1B3, OATP2B1, and OAT1‐OAT4 and a negative control protein (enhanced yellow fluorescent protein, eYFP) were transiently expressed in human embryonic kidney 293 (HEK293) cells by recombinant baculovirus‐mediated transduction. Baculoviruses carrying human genes for the transporters were prepared as reported previously. HEK293 cells were cultured in DMEM containing 10% fetal bovine serum at 37°C and 5% CO2 and passaged two to three times per week. For the transport studies, 0.05 × 10^6 cells for 48‐well plates (OATPs) or 0.06 × 10^6 cells for 24‐well plates (OATs) were seeded onto cell‐culture treated well plates coated with poly‐D‐lysine. After 1 day, cells were transduced to produce recombinant proteins by changing media to DMEM containing 30 μL (48‐well plates) or 60 μL (24‐well plates) of recombinant baculovirus and 3 mM (OATs) or 5 mM (OATPs) sodium butyrate in a total media volume of 500 μL. The cells were cultured for a further 2 days before the transport assays.
For the transport studies, media were removed and cells were washed once with warm transport uptake buffer (TP‐buffer—pH 7.4 HBSS with 25 mM HEPES and 4 mM sodium bicarbonate). Each experiment included triplicate (OATP) or duplicate (OAT) samples for every test condition. The uptake was started by removing liquid from wells and applying warm TP‐buffer (200 μL for 24‐well plates or 125 μL for 48‐well plates) containing a test compound to cells. Transport assays were terminated after a pre‐specified incubation time (reported in figure legends) by removing substrate solution and washing cells three times with cold TP‐buffer (300 μL for 48‐well plates and 400 μL for 24‐well plates). For the liquid chromatography mass spectrometry (LC–MS) analysis, compounds were extracted from cells with 125 μL (48‐well plates) or 250 μL (24‐well plates) of an ultrapure‐water solution containing 75% methanol and 0.1% formic acid, shaking at 250 RPM for 30 min. […] Samples were transferred to well plates, centrifuged at 3000 g for 30 min, and transferred to a new well plate for the analysis.
In the OATP inhibition assays, inhibitors in warm TP‐buffer were directly applied to cells after media removal, followed by a 30‐min preincubation step in the presence of inhibitors. […] OAT1 and OAT3 cells were lysed with 200 μL of 1 M sodium hydroxide for 10 min, and 150 μL of these samples were transferred to a black well plate for fluorescein quantification. […]
For the inhibition data analysis, the average of measured concentrations in the control cells was subtracted from the average of measured concentrations in transporter‐expressing cells for each inhibitor concentration and then normalized to the vehicle sample that represents 100% transport activity. […]

MRP4 = tested on: T2, MRP4; assay: Efflux transport assay in MRP4 HEK293 membrane vesicles; assay type: biochemical, human; settings: 5 and 50 µM, 10 min
T2 construct: expressed in transfected cells; host or cells: HEK293 cells

P-gp = target: T3, P-gp (Homo sapiens, UniProt P08183); assay: Efflux transport assay in P-gp HEK293 membrane vesicles; assay type: biochemical; settings: 5 and 50 µM, 10 min
T3 construct: made in house; host or cells: membrane vesicles from HEK293 cells expressing the transporter
T3 sequence (P08183 whole entry): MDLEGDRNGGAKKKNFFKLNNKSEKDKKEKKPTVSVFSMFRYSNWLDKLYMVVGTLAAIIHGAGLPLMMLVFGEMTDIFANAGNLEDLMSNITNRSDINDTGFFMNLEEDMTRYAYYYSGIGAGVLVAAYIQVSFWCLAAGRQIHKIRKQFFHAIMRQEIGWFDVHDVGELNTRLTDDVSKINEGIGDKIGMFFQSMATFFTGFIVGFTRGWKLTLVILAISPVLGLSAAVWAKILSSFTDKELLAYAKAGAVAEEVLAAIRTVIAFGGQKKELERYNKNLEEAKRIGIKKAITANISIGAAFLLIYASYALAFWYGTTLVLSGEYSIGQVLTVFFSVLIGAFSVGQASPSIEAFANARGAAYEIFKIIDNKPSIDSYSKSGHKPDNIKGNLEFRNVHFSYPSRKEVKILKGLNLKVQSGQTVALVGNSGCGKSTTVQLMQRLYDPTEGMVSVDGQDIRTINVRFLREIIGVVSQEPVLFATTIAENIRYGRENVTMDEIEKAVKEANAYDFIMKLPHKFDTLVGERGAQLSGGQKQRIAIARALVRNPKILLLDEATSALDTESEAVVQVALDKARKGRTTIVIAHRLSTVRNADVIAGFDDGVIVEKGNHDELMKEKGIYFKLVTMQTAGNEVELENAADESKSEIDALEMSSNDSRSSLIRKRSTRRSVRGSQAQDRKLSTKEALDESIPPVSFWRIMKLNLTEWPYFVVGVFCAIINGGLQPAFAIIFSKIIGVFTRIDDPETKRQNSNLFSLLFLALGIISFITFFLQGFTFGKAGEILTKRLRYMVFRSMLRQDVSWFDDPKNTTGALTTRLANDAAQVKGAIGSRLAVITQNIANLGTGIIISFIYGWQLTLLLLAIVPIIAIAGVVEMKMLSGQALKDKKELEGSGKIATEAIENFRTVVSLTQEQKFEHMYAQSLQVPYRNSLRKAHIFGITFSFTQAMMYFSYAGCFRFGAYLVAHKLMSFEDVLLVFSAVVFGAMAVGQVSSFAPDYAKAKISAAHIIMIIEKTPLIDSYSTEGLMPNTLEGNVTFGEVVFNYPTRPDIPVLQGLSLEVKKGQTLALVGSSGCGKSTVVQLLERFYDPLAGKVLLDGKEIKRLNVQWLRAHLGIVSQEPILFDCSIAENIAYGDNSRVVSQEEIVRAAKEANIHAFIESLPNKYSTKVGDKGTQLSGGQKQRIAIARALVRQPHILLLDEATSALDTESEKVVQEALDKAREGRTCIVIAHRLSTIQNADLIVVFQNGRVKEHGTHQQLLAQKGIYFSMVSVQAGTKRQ
Method: Membrane vesicles, 5 μL (7.5 μg of total protein), prepared as previously reported, were aliquoted to wells of a conical‐shaped 96‐well plate. The plate was incubated for 10 min at +37°C before the initiation of transport by adding 25 μL of TS‐buffer (10 mM Tris, 250 mM sucrose, pH adjusted to 7.4 with HEPES) containing magnesium chloride (10 mM final in the reaction), adenosine triphosphate (ATP) or adenosine monophosphate (AMP), 4 mM final in the reaction, and the transporter substrate and inhibitor. Each experiment included triplicate samples for both ATP and AMP samples. The concentrations of rosuvastatin and N‐methyl‐quinidine were 1 μM in the BCRP and P‐gp vesicle inhibition assays, respectively. […] The transport reactions were quenched by adding 200 μL of cold TS‐buffer to each well and transferring the samples to a 96‐multiwell 1.0 μm glass fiber filter plate (Merck Millipore, Darmstadt, Germany) kept under vacuum. Wells were further washed four times with cold TS‐buffer, after which the plate was dried under vacuum. The compounds were eluted from the plate by applying 100 μL of 75% methanol containing 0.1% formic acid to each well and incubating at 250 RPM for 30 min before centrifuging the samples to an analysis plate at 2800 g for 2 min. For the rosuvastatin samples, the elution solvent contained rosuvastin‐d6 as the internal standard. […]

SMILES	IC50 (OATP1B3)	Calculated R-value OATP1B3 (OATP1B3)	transport by MRP4 (MRP4)	transport by P-gp (P-gp)
Cc1onc(-c2c(Cl)cccc2Cl)c1C(=O)N[C@@H]1C(=O)N2[C@@H]1SC(C)(C)[C@@H]2C(=O)O [Dicloxacillin]	6.7 µM and 6.68 µM	1.8 ^a	did not transport	did not transport
Cc1onc(-c2c(F)cccc2Cl)c1C(=O)N[C@@H]1C(=O)N2[C@@H]1SC(C)(C)[C@@H]2C(=O)O [Flucloxacillin]	21 µM	1.7 ^a	did not transport	did not transport
